Here are results for one compound from patent EP4624482A1, “PYRIMIDOPYRIMIDINONE COMPOUND AND PHARMACEUTICAL COMPOSITION COMPRISING SAME” (Axceso Biopharma Co., Ltd., priority 2022, dated 2024).

The subject of this test is tyrosine hydroxylase (TH). The test can be described thus: Differentiation of pluripotent stem cells into dopaminergic neurons: TH expression. It is filed as cell-based. Here is the method: Pluripotent stem cells were seeded in AggreWell plates (stemcell) at 5,000 cells/microwell and cultured for 5 days in E6 medium (GIBCO) to induce embryonic body (EB) formation. For neural rosette formation, EBs were seeded into 35 mm dishes in groups of 30 and cultured for 10 days in N2bF medium. The 35 mm dishes were used after being coated with 15 µg/ml of poly-L-ornithine (sigma) and 1 µg/ml of fibronectin (sigma). The N2Bf medium composition was DMEM/F12 (GIBCO), N2 supplement (stemcell) 1×, 10% NEAA (GIBCO), 55 µM betaMercaptoethanol (GIBCO), bFGF (peprotech) 20 ng/ml. For the formation of spherical neural masses (SNMs), rosette masses were sliced and cultured in petri dishes with N2bF medium. SNMs were no larger than 500 µM in size and were sliced and cultured for 3 to 4 passages. After subculture of SNM, the clumps were broken into small pieces using a tungsten mesh (Nilaco) for the neural progenitor cell (NPC) culture step, and then attached to a PLO/FN-coated dish and cultured in N2bF medium. To differentiate NPCs into dopaminergic neurons, the medium was replaced with an ITS-B27 medium after 2 days of NPC culture. The ITS-B27 medium composition was DMEM/F12 (GIBCO), D-(+)-glucose (sigma) 1.5 mg/ml, insulin (wako) 5 µg/ml, transferrin (wako) 50 µg/ml, selenite (sigma) 30 nM, GlutaMAX (GIBCO) 2.5%, and B27 (GIBCO) 1×. After 4 days of NPC culture, 200 ng/ml of Sonic Hedgehog and 100 ng/ml of FGF8 (peprotech) were added to the ITS-B27 medium. After 6 days of NPC culture, 200 ng/ml of Sonic Hedgehog, 20 ng/ml of GDNF, 20 ng/ml of BDNF (peprotech), 200 µM of ascorbic acid, and 500 µM of cAMP (sigma) were added to the ITS-B27 medium and cultured for approximately 5 weeks. The compound of formula (1a-1) was treated starting from the stage 2 days after NPC culture. […]
The effect of the compound of formula (1a-1) on differentiation into neurons was evaluated by comparing the expression of tyrosine hydroxylase (TH) and dopamine transporter (DAT) depending on the presence or absence of treatment with the compound of formula (1a-1).

Regarding `CCCCCCCCCCCCCC[C@H]1OP(=O)(O)O[C@H]1[C@@H](N)CO.Cl` [formula (1a-1), (4S,5R)-4-((S)-1-amino-2-hydroxyethyl)-2-hydroxy-5-tetradecyl-1,3,2-dioxaphosphoran-2-oxide hydrochloride], under “3 weeks of treatment, normally increases after more than 5 weeks of differentiation”, the “TH expression at early time” value is given as “elevated”. For the setting “cell fluorescence immunostaining”, the “expression of TH” value is “increased”. For the setting “western blot of 5-week differentiation sample”, the TH expression entry is listed as “increased”.
